The test system of this test is 435261-313-R-J1-PDC tumor spheroid viability. The test is described as follows: Anticancer human tumor 435261-313-R-J1-PDC patient-derived colon adenocarcinoma cell line growth inhibition [PI3K]. Particulars: spheroids with HUVEC and MSC; for IC50: curve of first compound; for viability, T/C: stronger effect = lower value. The text has this:
Combinatorial screen of targeted agents with the PI3K inhibitors inavolisib, alpelisib, duvelisib, and copanlisib in multi-cell type tumor spheroids
A high-throughput screen of multi-cell type tumor spheroids was designed to identify active combinations of targeted small molecules and PI3K pathway inhibitors. Complex spheroids include a stromal component modeled by human endothelial cells (HUVEC) and fibroblasts modeled by human mesenchymal stem cells (MSCs). The concentration ranges selected for each drug and investigational agent were based upon clinically achievable concentrations if the clinical Cmax of the agent was known.
Compounds. The drugs and investigational agents: inavolisib (NSC800729), alpelisib (NSC765974), duvelisib (NSC772469), copanlisib (NSC816437), ipatasertib (NSC767898), afuresertib (NSC778305), talazoparib (NSC767125), sapanisertib (NSC764658), selumetinib (NSC741078), tovorafenib (DAY101, NSC766906), vemurafenib (NSC761431), ravoxertinib (NSC781343), sotorasib (NSC818433), MRTX1133 (NSC 836407), abemaciclib (NSC 768073), palbociclib (NSC758247), venetoclax (NSC 766270), SY5609 (NSC837396), enzalutamide (NSC755605), and darolutamide (NSC825331), were obtained from the National Cancer Institute (NCI) Developmental Therapeutics Program Chemical Repository. The FDA-approved anticancer drug set is available from the NCI Developmental Therapeutics Program. […] The stock solutions were prepared in dimethyl sulfoxide (DMSO, Sigma-Aldrich, St. Louis, MO, cat. D2650) at 800-fold the tested concentration and stored at -70 degrees C prior to their use. All drugs and investigational agents were tested over a range starting from a high concentration at or near the clinical Cmax and decreasing in half-log increments. If the clinical Cmax for an agent had not been determined, the highest concentration tested was 10 microM.
Cell Culture. All cells were maintained in an incubator at 37 degrees C and 5% CO2 with 95% humidity. The PDC lines were cultured according to standard operating procedures established by the NCI PDMR (https://pdmr.cancer.gov/sops/default.htm). All PDCs were thawed and cultured in Matrigel-coated flasks prepared with a working solution of 1X Ham's F-12 nutrient mix, without supplementation (Invitrogen, Waltham, MA, cat. 11765054), 100 U/mL penicillin-streptomycin (Invitrogen, cat. 15140122), and 2.5% Matrigel (Corning Inc., Corning, NY, cat. 354248) for the first three passages. The 354836-022-R-J1-PDC, 475296-252-R-J1-PDC, and 997726-040-R-J2-PDC lines were cultured in 6A media, which includes advanced DMEM/F-12 (Thermo Fisher Scientific, cat. 12634028), 10 mM HEPES (Thermo Fisher Scientific, cat. 15630080), 1X GlutaMAX supplement (Thermo Fisher Scientific, cat. 35050061), 0.1 mg/mL primocin (InvivoGen, San Diego, CA, cat. ant-pm-2), 10% defined fetal bovine serum, heat inactivated (HyClone Laboratories Inc., Logan, UT, cat. SH30070.03HI), 50% L-WRN conditioned media (ATCC, cat. CRL-3276), 1.25 mM N-Acetyl-L-cysteine (Sigma-Aldrich, cat. A9165), 10 mM nicotinamide (Sigma-Aldrich, cat. N0636), 1X B-27 supplement (Thermo Fisher Scientific, cat. 17504044), 1X N-2 supplement (Thermo Fisher Scientific, cat. 17502048), and 10 microM Y-27632 dihydrochloride (Tocris Bioscience, Bristol, United Kingdom, cat. 1254). The 624824-186-R-J2-PDC line was cultured in 6C/Colon 1B media, which includes all 6A media components plus 50 ng/mL human EGF recombinant protein (Thermo Fisher Scientific, cat. PHG0311). […]

Where “and” joins values, the source holds several entries; their conditions need not be identical. Equal entries are not always repeated.

IC50 and viability, T/C data for two compounds are collected here from PubChem BioAssay AID1963976 (Molecular Pharmacology Branch, DTP, NCI, 2024).

The term IC50 denotes the point on the concentration scale where inhibition reaches its midpoint. In general, viability, T/C refers to the result in the treated group divided by that in the control group, in per cent.
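Note: spheroids exposed to compounds for 7 days.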

As to `CC1(C)CCC(CN2CCN(c3ccc(C(=O)NS(=O)(=O)c4ccc(NCC5CCOCC5)c([N+](=O)[O-])c4)c(Oc4cnc5[nH]ccc5c4)c3)CC2)=C(c2ccc(Cl)cc2)C1` + CC(Nc1ncnc2nc[nH]c12)c1cc2cccc(Cl)c2c(=O)n1-c1ccccc1, the 50% inhibitory concentration (IC50) is greater than 10 µM (second compound 0.0316 µM); greater than 10 µM (second compound 0.1 µM); greater than 10 µM (second compound 0.316 µM); greater than 10 µM (second compound 1 µM); greater than 10 µM (second compound 3.16 µM); less than 0.0316 µM (second compound 10 µM). For the same compound, the viability, T/C reads like this: (second compound 0.0316 µM, first compound 0.0316 µM) 79.5%; (second compound 0.0316 µM, first compound 0.1 µM) 92%; (second compound 0.0316 µM, first compound 0.316 µM) 71.5%; (second compound 0.0316 µM, first compound 1 µM) 80%; (second compound 0.0316 µM, first compound 3.16 µM) 86.9%; (second compound 0.0316 µM, first compound 10 µM) 95%. For the same compound, the viability, T/C runs as follows: (second compound 0.1 µM, first compound 0.0316 µM) 66.1%; (second compound 0.1 µM, first compound 0.1 µM) 78.2%; (second compound 0.1 µM, first compound 0.316 µM) 81.3%; (second compound 0.1 µM, first compound 1 µM) 71.6%; (second compound 0.1 µM, first compound 3.16 µM) 94.5%; (second compound 0.1 µM, first compound 10 µM) 84.9%. Further, the viability, T/C was 77.5% (second compound 0.316 µM, first compound 0.0316 µM); 100% (second compound 0.316 µM, first compound 0.1 µM); 87.2% (second compound 0.316 µM, first compound 0.316 µM); 77.3% (second compound 0.316 µM, first compound 1 µM); 77.4% (second compound 0.316 µM, first compound 3.16 µM); 52.2% (second compound 0.316 µM, first compound 10 µM). Also, the viability, T/C is 87.6% (second compound 1 µM, first compound 0.0316 µM); 66.1% (second compound 1 µM, first compound 0.1 µM); 66.4% (second compound 1 µM, first compound 0.316 µM); 64% (second compound 1 µM, first compound 1 µM); 73.2% (second compound 1 µM, first compound 3.16 µM); 46.6% (second compound 1 µM, first compound 10 µM). In addition, the viability, T/C runs as follows: (second compound 3.16 µM, first compound 0.0316 µM) 65.3%; (second compound 3.16 µM, first compound 0.1 µM) 72.6%; (second compound 3.16 µM, first compound 0.316 µM) 87.2%; (second compound 3.16 µM, first compound 1 µM) 72.3%; (second compound 3.16 µM, first compound 3.16 µM) 77%; (second compound 3.16 µM, first compound 10 µM) 76.7%. Further, the viability, T/C was 41.6% (second compound 10 µM, first compound 0.0316 µM); 60.8% (second compound 10 µM, first compound 0.1 µM); 32.7% (second compound 10 µM, first compound 0.316 µM); 62.9% (second compound 10 µM, first compound 1 µM); 50.3% (second compound 10 µM, first compound 3.16 µM); 43.9% (second compound 10 µM, first compound 10 µM).
Consider `CCN1CCN(Cc2ccc(Nc3ncc(F)c(-c4cc(F)c5nc(C)n(C(C)C)c5c4)n3)nc2)CC1`, for which the viability, T/C is 78.8% and 104% and 106% (compound 0.00316 µM); 94.5% and 76.5% and 82.8% (compound 0.01 µM); 61.7% and 67.7% and 78.4% (compound 0.0316 µM); 48.9% and 58.6% and 55.6% (compound 0.1 µM); 47.7% and 44.3% and 50.4% (compound 0.316 µM); 40.8% and 56.3% and 51.8% (compound 1 µM).
